# Results reported in patent publication US20040019092A1, “Non-peptide somatostatin receptor ligands” (priority 2001, published 2004).
# Tests used:
# [1] = test system: GHRH stimulated GH secretion; test: GH secretion, rat in urethan anesthesia, i.v. single injection + repeated GHRH stimulation; assay type: in vivo
# [2] = test system: GHRH stimulated GH secretion; test: GH secretion, rat in urethan anesthesia, intraduodenal + repeated GHRH stimulation; assay type: in vivo; settings: urethan
# Description: No further treatment followed subcutaneous or intraduodenal application. […] This value has been determined in a total of four independent experiments. […] However, in further studies compound 47 has also been tested by the enteral route of administration after repeated stimulation of the GH secretion by GHRH. […] With most of these selected compounds additional in vivo experiments in other models (intraduodenal application followed by repeated stimulation of the GH secretion by GHRH, oral application by gavage of unanesthetized, estradiol primed rats) were performed. Table 4 summarizes data obtained for the inhibition of the stimulated GH secretion after subcutaneous, intraduodenal and intravenous application and the inhibitory effects obtained for different time points during intravenous infusion of selected hydantoins. […] [table]
# [3] = test system: GH secretion; test: GH secretion in vivo, rat, intraduodenal (enteral) application, 1 h (basal)
# Method: (§1) Animals, anesthesia: Male rats of a Sprague Dawley strain (Ico:OFA-SD, Iffa-Credo, F-Lyon) of 200-300 g body weight were used. They were kept under standardized conditions and were anesthetized with pentobarbital-sodium (Siegfried, CH Zofingen), 60 mg/kg i.p. for subcutaneous and intraduodenal applications. Animals designed for an infusion experiment were anesthetized with urethane (Siegfried, CH Zofingen), 1.2 g/kg i.p.
# (§2) Compounds: The compounds were dissolved, optionally with the aid of one or more of the following adjuncts:
# (§3) Stock solutions of the compounds were prepared in water with the addition of the necessary adjunct(s). Further dilutions were prepared allowing 5 mL/kg for subcutaneous application, 2 mL for intraduodenal (i.d.) application or 4.5 mL/kg for intravenous infusion. The solutions for the intravenous application/infusion were made isotonic by addition of glucose to a final concentration of 5%.
# (§4) Applications were made, or, in the case of infusion, started, approximately 10 minutes after induction of anesthesia. No further treatment followed subcutaneous or intraduodenal application. Ten, twenty-five and fifty-five minutes after start of the intravenous infusion the GH secretion was stimulated with repeated intravenous injections of the potent GHRH analog, D-Ala2 GHRH1-29NH2, 1 μg/kg.
# (§5) One hour after subcutaneous or intraduodenal application of the compounds, blood was collected from the trunk after decapitation. In the case of application by infusion, 5 minutes after each application of GHRH, a blood sample of 0.8 mL was taken from a V. jugularis and mixed with EDTA (Eppendorf tubes TOM14, Milian, CH Geneva). The blood samples were kept on ice and spun in a cooled centrifuge. The serum or plasma was separated and frozen.
# (§6) Statistics: In each experiment, 4-5 animals were used per dose, with 6 to 8 animals as the control group that received the vehicle. The GH serum/plasma levels were averaged, the mean of the treated groups expressed in percent of the control group and the ID50-value for the inhibition of the secretion was determined graphically (log-probit) for each experiment. In most experiments with enteral (intraduodenal) application only 1 dose, 10 mg/kg, was given. […] Only inhibitions between 20 and 80% were considered reliable.
# (§7) Two to four experiments were performed. In the case of proper dose response curves, allowing the determination of an ID50 values were averaged logarithmically. In the cases of single dose-experiments, the GH value in percent of control were averaged logarithmically and the ID50 for this value was taken from the table. ID50 values determined at the different time points during the infusion were averaged and this value was included in the tables.
# [4] = test system: GH secretion; test: Unanesthetized estradiol primed male rats, oral by gavage: GH; assay type: in vivo, rat
# Method: The inhibitory effect of the compounds on GH release may also be examined after oral application to male rats with oestradiol implants. This test is carried out as follows.
# A loop (length 50 mmØ3 mm) of silastic with 50 mg of oestradiol is implanted under the dorsal skin of anaesthetized male OFA rats that have a weight of ca. 300 g. At various times (1 to 6 months later), these animals, in a fasted state, are used repeatedly for tests. The test substances are active in this test at doses from 0.1 to 5 mg/kg, when GH level in the blood serum is determined by radio-immunoassay 1 and 2 hours after oral administration.
# (§8) Table 5 summarizes the results obtained in the estradiol primed male rats that received the compounds orally by gavage. These rats have stabilized elevated GH plasma levels as well as increased prolactin levels. In contrast to normal untreated rats, who's prolactin secretion is not sensitive to the inhibitory effect of somatostain, in these rats the prolactin secretion is inhibited to a similar degree as the GH secretion. Therefore, the inhibitory effect can be measured on 2 different parameters, GH and prolactin. The mean enteral absorption and activity of the respective compounds are shown.
# [5] = test system: GHRH stimulated GH secretion; test: GH secretion in vivo, rat, intravenous infusion with repeated GHRH stimulation
# Method: as §1, §3, §4, §5, §6, §7
# [6] = test system: GH secretion; test: GH secretion in vivo, rat, subcutaneous application, 1 h (basal); settings: rat, basal GH secretion, 1 h after subcutaneous application
# Method: as §1, §2, §3, §4, §5, §6, §7
# [7] = test system: GHRH stimulated GH secretion; test: GH secretion, rat in urethan anesthesia, subcutaneous + repeated GHRH stimulation; assay type: in vivo
# Method: as §4
# With most of these selected compounds additional in vivo experiments in other models (intraduodenal application followed by repeated stimulation of the GH secretion by GHRH, oral application by gavage of unanesthetized, estradiol primed rats) were performed. Table 4 summarizes data obtained for the inhibition of the stimulated GH secretion after subcutaneous, intraduodenal and intravenous application and the inhibitory effects obtained for different time points during intravenous infusion of selected hydantoins.
# [8] = test system: prolactin secretion; test: Unanesthetized estradiol primed male rats, oral by gavage: prolactin; assay type: in vivo, rat
# Description: as §8
# [9] = estradiol implant male rats, oral by gavage, 1 hour
compound,measurement,setting,value
Cc1cccc2c(CC3C(=O)N(CCCCCN)C(=O)N3S(=O)(=O)c3ccc(Oc4ccc(O)c(Cl)c4)c(C(=O)N(C)C)c3)c[nH]c12 (racemic) [(+/−)-43],I.V. SINGLE INJECTION + GHRH ID50 15′,[1]; 15′,0.0125 mg/kg
same,I.V. SINGLE INJECTION + GHRH ID50 30′,[1]; 30′,0.0312 mg/kg
same,I.V. SINGLE INJECTION + GHRH ID50 60′,[1]; 60′,0.055 mg/kg
same,I.V. SINGLE INJECTION + GHRH ID50 120′,[1]; 120′,0.1241 mg/kg
same,INTRADUODENAL + GHRH ID50 15′,"[2]; 15′, ø = no effect at this dose",1.165 mg/kg
same,INTRADUODENAL + GHRH ID50 30′,[2]; 30′,1.646 mg/kg
same,INTRADUODENAL + GHRH ID50 60′,[2]; 60′,1.419 mg/kg
same,INTRADUODENAL + GHRH ID50 120′,"[2]; 120′, ø = no effect at this dose",2.872 mg/kg
same,GH vivo i.d. 1 h ID50,"[3]; basal GH secretion, 1 h after intraduodenal application, mostly approximate ID50 from single 10 mg/kg dose, Ø = no effect at this dose, > = extrapolated value",3.417 mg/kg
same,enteral ID50 (GH secretion),[3]; enteral (intraduodenal) application,3.4 mg/kg
same,inhibition at 10 mg/kg,"[3]; intraduodenal, enteral administration of 10 mg/kg",68%
same,GH 1 H ID50,[4]; [9],3 mg/kg
same,MEAN ID50 (GH and prolactin),[4]; [9],2.324 mg/kg
same,oral ID50 (GH),[4]; estradiol primed male rats,3 mg/kg
same,INFUS. + GHRH ID50 MEAN,"[5]; Table 4, mean of infusion time points",0.00372 mg/kg
same,INFUS. + GHRH ID50 15′,"[5]; Table 4, urethan, 15′ of infusion",0.00644 mg/kg
same,INFUS. + GHRH ID50 30′,"[5]; Table 4, urethan, 30′ of infusion",0.00358 mg/kg
same,INFUS. + GHRH ID50 60′,"[5]; Table 4, urethan, 60′ of infusion",0.00224 mg/kg
same,GH vivo Inf + GHRH ID50 (mean of time points),"[5]; urethane, i.v. infusion, GHRH stimulated",3.72 µg/kg/h
same,GH vivo s.c. 1 h ID50,[6],0.00379 mg/kg
same,SUBCUTANEOUS + GHRH ID50 15′,[7]; 15′,0.00705 mg/kg
same,SUBCUTANEOUS + GHRH ID50 30′,[7]; 30′,0.00795 mg/kg
same,SUBCUTANEOUS + GHRH ID50 60′,[7]; 60′,0.01135 mg/kg
same,SUBCUTANEOUS + GHRH ID50 120′,[7]; 120′,0.01569 mg/kg
same,PROLACT 1 H ID50,"[8]; estradiol implant male rats, oral by gavage, 1 hour, ø = no effect at this dose",1.8 mg/kg
same,oral ID50 (prolactin),[8]; estradiol primed male rats,1.8 mg/kg
